The text below walks through data of ChEMBL document CHEMBL3044886, “Chemoselective synthesis, antiproliferative activities, and SAR study of 1H-pyrazol-5-yl-N,N-dimethylformamidines and pyrazolyl-2-azadienes” (2012).

Structures are written as SMILES. Some results are limits rather than exact numbers.

Assay type in all cases: functional
Test [1] relates to NCI-H226. Nature of the test: Growth inhibition of Homo sapiens (human) NCI-H226 cells after 72 hr by MTT assay. The note with it: NCI-H226, 72 h. A general note: Tetrazolium assays rely on reduction of a dye to a coloured formazan, in cell work by metabolically active cells.
Test [2] can be described thus: Growth inhibition of Homo sapiens (human) NPC-TW01 cells after 72 hr by MTT assay. Conditions: NPC-TW01, 72 h.
The subject of test [3] is Jurkat. Description: Growth inhibition of Homo sapiens (human) Jurkat cells after 72 hr by MTT assay.

`CN(C)/C=N/c1c(C=O)c(-c2ccccc2)nn1-c1ccccc1`: the values for the 50% growth inhibitory concentration (GI50) in test [1] and in test [2] were 31.4 µM and 9.3 µM, respectively.

Regarding `CN(C)/C=N/c1c(C=O)c(-c2ccc(Cl)cc2)nn1-c1ccc(Br)cc1`, the GI50 (as a rule, the concentration giving 50% growth inhibition) in test [3] is 38.9 µM; in test [1] it was 62.9 µM; in test [2] it was above 100 µM.

On to `CN(C)/C=N/c1cc(-c2ccccc2)nn1-c1ccccc1`, for which the GI50 in test [3], in test [1] and in test [2] was above 100 µM each time.

As to `Cc1ccc(-c2cc(/N=C/N(C)C)n(-c3cccc(Cl)c3)n2)cc1`, the GI50 was above 100 µM in test [3], 80.9 µM in test [1] and above 100 µM in test [2].

In the case of `CN(C)/C=N/c1cc(-c2ccc(Cl)cc2)nn1-c1cccc(Cl)c1`, the GI50 in test [3] amounted to 74.5 µM; in test [1] it was 75.6 µM; in test [2], 92.7 µM.

For the compound `Cc1ccc(-c2cc(/N=C/N(C)C)n(-c3ccc(Br)cc3)n2)cc1`, the GI50 is above 100 µM in test [3], 73.9 µM in test [1] and above 100 µM in test [2].

In the case of `CN(C)/C=N/c1cc(-c2ccc(Cl)cc2)nn1-c1ccc(Br)cc1`, the GI50 in test [3] was 84.9 µM; in test [1], 59.8 µM; in test [2] it was 60.7 µM.

Turning to `Nc1c(C=O)c(-c2ccccc2)nn1-c1ccccc1`, the concentration for 50% growth inhibition (GI50) in test [3] was 87.3 µM; in test [1] it was above 100 µM; in test [2] it was above 100 µM.

Take `Cc1ccc(-c2nn(-c3cccc(Cl)c3)c(N)c2C=O)cc1`: the results for the GI50 in test [3], in test [1] and in test [2] were 86.3 µM, 71.8 µM and above 100 µM, respectively.

Turning to `Nc1c(C=O)c(-c2ccc(Cl)cc2)nn1-c1cccc(Cl)c1`, the GI50 in test [3] was 78.9 µM; in test [1], 79.7 µM; in test [2] it was above 100 µM.

As to `Cc1ccc(-c2nn(-c3ccc(Br)cc3)c(N)c2C=O)cc1`, the concentration for 50% growth inhibition (GI50) in test [3] was 34.4 µM; in test [1], 8.5 µM; in test [2] it was 28.2 µM.

Take `Nc1c(C=O)c(-c2ccc(Cl)cc2)nn1-c1ccc(Br)cc1`: the GI50 came to 90.7 µM in test [3], 49.1 µM in test [1] and 59.7 µM in test [2].

For the compound `Nc1cc(-c2ccccc2)nn1-c1ccccc1`, the GI50 is 83 µM in test [3], 72.2 µM in test [1] and above 100 µM in test [2].

As for `Cc1ccc(-c2cc(N)n(-c3cccc(Cl)c3)n2)cc1`, the figures for the 50% growth inhibitory concentration (GI50) in test [3], in test [1] and in test [2] were 56.6 µM, 63.5 µM and above 100 µM, respectively.

In the case of `Nc1cc(-c2ccc(Cl)cc2)nn1-c1cccc(Cl)c1`, the 50% growth inhibitory concentration (GI50) in test [3] was above 100 µM; in test [1], 75.1 µM; in test [2], above 100 µM.

`Cc1ccc(-c2cc(N)n(-c3ccc(Br)cc3)n2)cc1`: the GI50 in test [3] amounted to 45 µM; in test [1] it was 54.3 µM; in test [2], 80.2 µM.

On to `Nc1cc(-c2ccc(Cl)cc2)nn1-c1ccc(Br)cc1`, for which the GI50 in test [3] turned out to be 61.3 µM; in test [1] it was 58.7 µM; in test [2], 64.4 µM.

For `Cc1ccc(-c2nn(-c3cccc(Cl)c3)c(/N=C/N(C)C)c2C=O)cc1`, the concentration for 50% growth inhibition (GI50) turned out to be 7.8 µM in test [3], 8.9 µM in test [1] and 7.2 µM in test [2].

As for `CN(C)/C=N/c1c(C=O)c(-c2ccc(Cl)cc2)nn1-c1cccc(Cl)c1`, the results for the GI50 in test [3], in test [1] and in test [2] were 7.7 µM, 9.2 µM and 7.4 µM, respectively.

For `Cc1ccc(-c2nn(-c3ccc(Br)cc3)c(/N=C/N(C)C)c2C=O)cc1`, the GI50 was 6.7 µM in test [3], 8.2 µM in test [1] and 6 µM in test [2].
